Test results from patent US20170304168A1, “PHENYL KETONE DERIVATIVES AS SELF-TANNING AGENTS” (MERCK PATENT GmbH, priority 2012, published 2017).

Tested on: B16V mouse melanoma cells
Test: B16 V mouse melanoma cell test (melanin content)
Assay type: cell-based
Conditions: for Melanin content in pg/B-16V cell: relative to negative control DMSO 0.1% = 100
Experimental: mouse melanoma cells (manufacturer: DSMZ; Article No.: ACC370) in RPMI medium (Invitrogen, Article No.: 31870), to which 10% of FBS (foetal bovine serum; Invitrogen, Article No.: 10499044), 2 mM L-glutamine (Invitrogen, Article No: 25030) and 1 mM sodium pyruvate (Invitrogen, Article No.: 11360) had additionally been added (=modified RPMI medium), are transferred into a culture flask and incubated at 37° C. and 5% CO2 for 72 h. The medium is separated off, and the cells are washed with 10 ml of D-PBS (Dulbecco's phosphate-buffered salines; Invitrogen, Article No.: 14190) and subsequently removed by suction. 1 ml of HyQtase cell detachment solution (Hyclone, Article No.: SV30030.01) is added to the cells. The bottle is swirled a number of times, and the HyQtase cell detachment solution is subsequently removed by suction. The cells are then incubated in the incubator at 37° C. and 5% CO2 for 5 min. The cells are taken up in the modified RPMI medium (see above), and the cell count is determined. To this end, the cells are stained with Trypan Blue and counted in a Neubauer chamber. The cells are subsequently sown out again in the modified RPMI medium (see above) in a defined cell count of 80,000 cells per well (6-well clear plate, TCT, PS (Nunc)). The cells are incubated at 37° C. and 5% CO2 for 24 h, the medium is then removed. The substance to be investigated (see table below) is subsequenly added in various concentrations. After the final incubation period, the medium is removed by suction, and the cells are washed with 1000 μl of D-PBS (Invitrogen, Article No.: 14190). The medium is again removed by suction. 250 μl of HyQtase cell detachment solution (Hyclone, Article No.: SV30030.01) are added to the cells. The 6-well plate is swirled a number of times, and the HyQtase cell detachment solution is subsequently removed by suction. The cells are then incubated in the incubator at 37° C. and 5% CO2 for 5 min. The cells are taken up in 1.5 ml of DPBS (Invitrogen, Article No.: 14190) and transferred into a cup (SARSTEDT, Ref. 72.692.005). The cell count is subsequently determined. To this end, the cells are stained with Trypan Blue and counted in a NeuBauer chamber. The cells are then centrifuged at 3500 g for 1 min. The pellets obtained are photographed, and the supernatant is subsequently removed by suction. The pellets are dissolved in 1 ml of 1N NaOH at 80° C. for 1 h and then cooled to RT. 200 μl per cup (as quadruple determination) are subsequently pipetted into a 96-well plate (VWR, Article No.: 4100636981), and the absorption at a wavelength of 405 nm is determined (Safire, Tecan). The content of melanin can be determined in this way by means of a calibration line. As comparison with the compounds of the formula I to be investigated, a sample with dimethyl sulfoxide (DMSO) (0.1%) as negative control and a sample with IBMX (200 μm) as positive control are each investigated in parallel. The following tables give the results of the determination of the melanin concentration obtained for the substance dilutions indicated. The results obtained are quoted relative to the negative control with dimethyl sulfoxide (DMSO), whose measurement value is set to 100%. IBMX serves as positive control.

[1] = Test 1, 300 μM (printed 300 µM)

Which “Melanin content in pg/B-16V cell” value (Test 1, 200 μM (printed 200 µM)) does the source give for CC(C)Cn1c(=O)n(C)c(=O)c2[nH]cnc21 [IBMX, reference compound] here?
Its value is 726 pg/B-16V cell.

What about the “Melanin content in pg/B-16V cell” value (Test 2, 200 μM (printed 200 µM)) of the same compound?
The value was 338 pg/B-16V cell.

How did the “Effect on melanogenesis (result in words)” value (from here on “Effect on melanogenesis”) (Result of Test 1) turn out when CC(=O)c1ccccc1O [Ia, 1-(2-Hydroxyphenyl)ethanone] was run?
Its value is “promote melanogenesis”.

And the “Melanin content in pg/B-16V cell” value (Test 1, 50 μM)?
Its value is 191 pg/B-16V cell.

What about the “Melanin content in pg/B-16V cell” value [1] of the same compound?
The value was 429 pg/B-16V cell.

And the “Melanin content in pg/B-16V cell” value (Test 1, 1 mM)?
Its value is 438 pg/B-16V cell.

Which results are given for COc1ccccc1C(C)=O [Ib, 1-(2-Methoxyphenyl)ethanone]?
Effect on melanogenesis (result in words) (Result of Test 1): promote melanogenesis; Melanin content in pg/B-16V cell (Test 1, 50 μM): 202 pg/B-16V cell; Melanin content in pg/B-16V cell [1]: 318 pg/B-16V cell; Melanin content in pg/B-16V cell (Test 1, 1 mM): 611 pg/B-16V cell

Which “Effect on melanogenesis” value (Result of Test 1) does the source give for CC(=O)c1c(O)cc(O)cc1O [Ic] here?
The value was “promote melanogenesis”.

What about the “Melanin content in pg/B-16V cell” value (Test 1, 50 μM) of the same compound?
The value was 129 pg/B-16V cell.

And the “Melanin content in pg/B-16V cell” value (Test 1, 100 μM)?
The value was 144 pg/B-16V cell.

What about the “Melanin content in pg/B-16V cell” value (Test 1, 500 μM) of the same compound?
The value was 184 pg/B-16V cell.

COc1cccc(O)c1C(C)=O [Id, 1-(2-Hydroxy-6-methoxyphenyl)ethanone] was tested. Which “Effect on melanogenesis” value (Result of Test 2) did it give?
The value was “promote melanogenesis”.

What about the “Melanin content in pg/B-16V cell” value (Test 2, 100 μM) of the same compound?
Its value is 275 pg/B-16V cell.

And the “Melanin content in pg/B-16V cell” value (Test 2, 500 μM)?
The value was 432 pg/B-16V cell.

Which “Effect on melanogenesis” value (Result of Test 2) does the source give for COc1ccc(C(C)=O)c(OC)c1 [Ie, 1-(2,4-Dimethoxyphenyl)-ethanone] here?
The value was “promote melanogenesis”.

And the “Melanin content in pg/B-16V cell” value (Test 2, 100 μM)?
The value was 104 pg/B-16V cell.

What about the “Melanin content in pg/B-16V cell” value (Test 2, 500 μM) of the same compound?
Its value is 121 pg/B-16V cell.

With CC(=O)c1ccccc1N [Ig] as the compound, how does the “Effect on melanogenesis” value (Result of Test 2) read?
The value was “promote melanogenesis”.

What about the “Melanin content in pg/B-16V cell” value (Test 2, 100 μM) of the same compound?
Its value is 133 pg/B-16V cell.

What about the “Melanin content in pg/B-16V cell” value (Test 2, 500 μM) of the same compound?
Its value is 209 pg/B-16V cell.

With COc1cc(OC)c(C(C)=O)c(OC)c1 [Ih] as the compound, how does the “Effect on melanogenesis” value (Result of Test 2) read?
Its value is “promote melanogenesis”.

What about the “Melanin content in pg/B-16V cell” value (Test 2, 100 μM) of the same compound?
Its value is 126 pg/B-16V cell.

And the “Melanin content in pg/B-16V cell” value (Test 2, 500 μM)?
The value was 164 pg/B-16V cell.
